Legend:
Type in all cases: cell-based
[1] = test system: rat hepatic stellate cells; test: Morphology and detachment of culture-activated rat hepatic stellate cells (light microscopy)
Source text: Rat hepatic stellate cells (HSCs) were isolated by pronase/collagenase perfusion and purified by isopycnic density centrifugation in Opti-prep™ (Nycomed, Amersham, England) and elutriation essentially as previously described (Bahr et al., Hepatology (1999) 29:839-848). Human hepatic stellate cells were isolated from discarded resected liver via a similar protocol (Trim et al., J. Biol. Chem., (2000) 275:6657-6663). The use of human liver tissue for scientific investigation was approved by the UK South and West Local Research Ethics Committee and was subject to patient consent.
It has been shown recently that liver myofibroblasts may contribute to liver fibrogenesis and that liver myofibroblasts may have the potential to contaminate passaged hepatic stellate cell cultures (Knittel et al., Gastronenterology, (1999) 117:1205-1221). In this study, only primary cultures of hepatic stellate cells were used, which were desmin and glial fibrillary acid protein positive (markers shown to be expressed in hepatic stellate cells, but not liver myofibroblasts—Knittel et al., supra).
(§1) Cells were treated with gliotoxin dissolved in DMSO vehicle (added to medium from a 2000-fold molar concentrated stock). Control cells received DMSO vehicle only (i.e., 0.05% vol/vol). All other additions to culture medium were made from concentrated stocks dissolved in DMSO or by direct addition to culture medium. Protein contents of wells were determined using the Lowry assay (Lowry et al., J. Biol. Chem., (1951)193: 265-275).
Culture activated rat (14 day) and human (24 day) hepatic stellate cells were treated with DMSO solvent control or 1.5 μMol/L gliotoxin. […] Hepatic stellate cells changed from a flattened fibroblastic phenotype with distinct cell-cell interfaces to a substratum detached, rounded, and blebbed morphology.

[2] = test system: human hepatic stellate cells; test: DNA cleavage in human hepatic stellate cells (ladder, propidium iodide, TUNEL); conditions: human HSC, gliotoxin
Protocol: Hepatic stellate cells cultured in 35-mm diameter dishes (Greiner) were harvested, pelleted by centrifugation and DNA fragmentation determined as outlined elsewhere (Elsharkawy et al., Hepatology (1999) 30:761-769). Propidium Iodide Flow-Activated Cell Sorting Analysis Detached cells were pelleted by centrifugation, washed in PBS, and resuspended in HYPO buffer (0.1% wt/vol) Na3Citrate and 0.1% (wt/vol) Triton™ X-100 containing […] propidium iodide and incubated for 1 hour. The cells were then analyzed by fluorescence-activated cell sorter (FACS) with a Becton Dickinson (San Jose, Calif.) FACScan instrument using a 488 nm excitation wavelength with a band pass filter set at 530 nm. Attached cells were scraped in HYPO buffer after washing cells with PBS.
(§2) Rat and human hepatic stellate cells and rat liver tissue were fixed in 4% paraformaldehyde in PBS or 10% formalin in PBS, respectively, before being stained with Giemsa. DNA fragmentation was examined by labeling of 3′-OH DNA ends by the enzymatic addition of digoxygenin-labeled deoxyuridine triphosphate (dUTP) using terminal deoxynucleotidyl transferase using a kit from Boehringer essentially as described by the manufacturer. Rat liver tissue sections were pretreated with diethyl pyrocarbonate as described previously (Stahelin et al., J. Clin. Pathol. Mol. Pathol. (1998) 51:204-208) to reduce nonspecific reaction.

[3] = test system: rat hepatocytes in comparison to rat hepatic stellate cells; test: Cell attachment (protein assay): gliotoxin doses killing rat hepatocytes versus hepatic stellate cells; conditions: attachment after four hours, in vitro
Protocol: Rat hepatocytes were isolated by collagenase perfusion essentially as previously described. (Harvey et al., Biochemical J., (1998) 331:273-281). Hepatocytes were cultured as outlined for hepatic stellate cells except that they were initially seeded onto collagen coated plates in William's medium E supplemented with 10% fetal calf serum and 1 μg/mL insulin for the first 2 hours.
as §1
The necessary doses of gliotoxin required to kill rat hepatic stellate cells and hepatocytes were compared. Culture-activated (14-day) rat hepatic stellate cells or rat hepatocytes were treated with either 0.05% (vol/vol) DMSO or 1.5 μmol/L gliotoxin and cell attachment determined by direct assay of protein in each well after four hours as outlined in Materials and Methods. The results obtained are depicted in FIG. 3A and are expressed as the mean and standard deviation percentage attachment versus DMSO control for three separate experiments.

[4] = test system: rat hepatic stellate cells; test: TUNEL staining of cultured rat hepatic stellate cells; conditions: 1.5 μmol/L gliotoxin, two hours
Source text: as §2
DNA strand breaks were also characterized by TUNEL staining. Culture-activated (14-day) rat hepatic stellate cells were treated with 0.05% (vol/vol) DMSO or 1.5 μmol/L gliotoxin for two hours and DNA strand breaks examined by TUNEL staining as outlined in Materials and Methods.

[5] = test system: rat hepatic stellate cells; test: Hepatic stellate cell apoptosis by acridine orange staining and counting (cycloheximide or serum deprivation), rat cells
Protocol: Human hepatic stellate cells were extracted from the margins of normal human liver resected for colonic metastatic disease as previously described (Iredale et al., Clin. Sci., (1995) 89: 75-81). Rat hepatic stellate cells were extracted from normal rat liver by Pronase and collagenase digestion and purified by centrifugal elutriation as described (Arthur et al., J. Clin. Invest., (1989) 84:1076-1085). Extracted hepatic stellate cells were cultured on plastic until they were activated to a myofibroblastic phenotype after 7 to 10 days. Human and rat hepatic stellate cells were used for experiments after activation in primary culture or before fourth passage. Cells were cultured in Dulbecco's modified Eagle's medium in the presence of 16% fetal calf serum and antibiotics.
Apoptosis of hepatic stellate cells was induced by absolute serum deprivation, cycloheximide treatment (Issa et al., Gut (2001) 48: S48-S57), or exposure to nerve growth factor as previously described (Trim et al., Am. J. Pathol., (2000) 156, 1235-1243). Hepatic stellate cells were cultured in 24-well tissue culture plates. Rat and human hepatic stellate cells were exposed to proapoptotic stimuli with and without recombinant TIMP-1 (Biogenesis, Poole, UK) and other manipulations as detailed below. Following a 4 hour incubation at 37° C., nuclear morphology was assessed by adding acridine orange to each well (final concentration 1 μg/ml) and observing the cells under blue fluorescence. The total number of apoptotic bodies was counted, and any apoptotic bodies floating in the supernatant were included by racking up the objective lens. The total number of cells per field was counted, and an apoptotic index was calculated. Each condition was performed in duplicate, and three high power fields were counted for each well. […] To examine for autocrine effects, hepatic stellate cells were incubated for 18 hours with azide-free polyclonal neutralizing antibodies to TIMP-1 and a nonimmune IgG control (Santa Cruz Biotechnology, Inc., Santa Cruz, Calif.), and responses were assessed by acridine orange staining and counting.
Apoptosis was assessed by acridine orange staining. […] A normal cell lies adjacent to the apoptotic body. This technique was used to determine the percentage of apoptotic hepatic stellate cells following exposure to cyclohexamide in the presence or absence of TIMP-1. Hepatic stellate cells were exposed to 50 μM cyclohexamide and 0, 1, 10, 100 or 200 ng/ml of TIMP-1. Cells treated with serum alone were used as controls. […] Bovine serum albumin, used as a carrier for the TIMP-1 had no antiapoptotic effect.

Molecule	detachment from culture dish substratum ([1]; 1.5 μMol/L gliotoxin, within four hours)	morphologic alterations ([1]; culture activated (14 day) rat HSC, 1.5 μmol/L)	DNA cleavage by propidium iodide or TUNEL staining [2]	cleavage of DNA to oligonucleosomal-length fragments [2]	higher concentrations required to kill rat hepatocytes in comparison to rat hepatic stellate cells [3]	TUNEL staining [4]	apoptosis induced by cycloheximide (acridine orange) ([5]; 50 μM cycloheximide, 4 hours, TIMP-1 1-200 ng/ml)	apoptosis in serum-free conditions (acridine orange) ([5]; 24 hour incubation in serum-free conditions)	reduction in apoptotic morphology by acridine orange staining and counting ([5]; TIMP-1 10 ng/ml, cycloheximide)	reduction in apoptosis by acridine orange staining and counting ([5]; TIMP-1 100 ng/ml, cycloheximide)	apoptosis induced by cycloheximide (acridine orange) ([5]; rat HSC, protein at 142.5 ng/ml)
CN1C(=O)[C@]23CC4=CC=C[C@H](O)[C@H]4N2C(=O)[C@@]1(CO)SS3 [gliotoxin]	a majority of the hepatic stellate cells had detached	striking morphologic alterations within one hour	DNA cleavage was detected	did not cleave their DNA to oligonucleosomal-length fragments	10 to 100 fold	extensive TUNEL-positive staining					
TIMP-1: recombinant tissue inhibitor of matrix metalloproteases 1 (Biogenesis)							significantly reduces apoptosis of activated hepatic stellate cells induced by cycloheximide exposure in a dose-dependent manner	identical effect	30%	50%	inhibited apoptosis induced by cycloheximide exposure
